Earlier results on 2 substances are cited in patent publication US20240350409A1, “TRANSDERMAL DELIVERY FORMULATIONS AND METHODS FOR THE MANUFACTURE THEREOF” (LifeActive, Inc., priority 2023, published 2024).

For this data set the following is noted: in H2O at ~15-20° C.; weak organic acids.

Citric Acid: the pKa3 is 6.40.
Maleic Acid: the pKa2 is reported as 6.07.
